{"source": "patent US7250267B2", "about": "“Cross-reactive sensors” (priority 2001, dated 2007)", "assay_type_in_all_cases": "biochemical", "key": {"[1]": {"target": "T1, Acetylcholine Esterase from Electrophorus electricus (Electrophorus electricus, UniProt O42275)", "T1 construct": "purchased Sigma and Fluka", "T1 sequence (O42275 24-633)": "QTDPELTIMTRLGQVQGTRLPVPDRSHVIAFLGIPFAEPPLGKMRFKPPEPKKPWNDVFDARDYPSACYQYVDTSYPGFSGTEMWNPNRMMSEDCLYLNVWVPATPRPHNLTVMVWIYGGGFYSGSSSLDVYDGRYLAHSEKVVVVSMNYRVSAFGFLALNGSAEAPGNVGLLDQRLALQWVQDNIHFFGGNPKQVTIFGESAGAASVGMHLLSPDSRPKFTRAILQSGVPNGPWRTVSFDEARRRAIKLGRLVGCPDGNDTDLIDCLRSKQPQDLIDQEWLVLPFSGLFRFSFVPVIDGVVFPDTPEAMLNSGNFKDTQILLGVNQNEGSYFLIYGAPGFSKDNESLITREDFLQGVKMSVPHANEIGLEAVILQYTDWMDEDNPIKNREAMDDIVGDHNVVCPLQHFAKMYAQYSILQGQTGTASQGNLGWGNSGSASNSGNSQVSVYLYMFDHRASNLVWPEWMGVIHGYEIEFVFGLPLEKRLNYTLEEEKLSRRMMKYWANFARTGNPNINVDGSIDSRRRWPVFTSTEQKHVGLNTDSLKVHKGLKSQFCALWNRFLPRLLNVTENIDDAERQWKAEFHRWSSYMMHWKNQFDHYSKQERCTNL", "experiment": "Esterase hydrolysis microtiter plate assay with fluorescein pH indicator, acetylcholine esterase", "conditions": "for hydrolysis reaction slope after three months / initial slope range and standard deviation of hydrolysis reaction: with acetylcholine esterase; for initial slope range and standard deviation of hydrolysis reaction: measured initially", "procedure": "(§1) A fluorescent pH indicator, fluorescein, was added to the reaction mixture to measure the change in acidity resulting from the hydrolysis reaction in a 96-well microtiter plate format. The fluorescence response was monitored over time to give a temporal pH-induced fluorescence pattern. […] Esterases have been used to test ester chirality (Janes et al., Chem. Eur. J, 1998, 4, 2324) and as synthetic tools for efficiently hydrolyzing a variety of esters (Ohno et al., Org. React, 1989, 37, 1). General Procedure for Enzyme-Based Sensor Array:\n(§2) First, solutions of desired substrates (certain exemplary substrates are depicted in FIGS. 4 and 5) were made from 100 mM of substrate in CH3CN (or buffer, depending on the solubility of the ester). The analyte concentration was chosen to be at most one-fifth of the Michaelis constant (kM) for the esterases. All solvents and substrates were purchased from Aldrich, Sigma, and Fluka Chemical Companies and used as received.\n(§3) The microtiter plate assay provides a rapid and reproducible system to measure the hydrolysis reactions. In the present example, the microtiter plate assay contained the nine esterases in different columns and the ester analytes in the different rows. Each esterase catalyzed hydrolysis reaction was addressed individually to monitor the kinetics by scanning each well independently. After preparation of the desired solutions, to the microtiter plate was first pipetted (using a pipetman) 100 μL of the substrate solution into each well. […] The plate was allowed to shake for 10 seconds before the first reading. The reader reads 15 second intervals while shaking before each read. The plate was monitored for 90 seconds by a Molecular Devices, Spectra Max Gemini, fluorescence microtiter plate reader. The reader scans each row and column of the microtiter plate reading each well individually. Therefore, each enzyme was monitored individually and the enzyme's kinetics were measured at the same point in time. […] The MATLAB program analyzes the individual interactions and separates them into clusters, which can indicate the ability of the sensor to distinguish the analytes."}, "[2]": {"test_system": "Esterase from Bacillus sp. (denoted bacteria-1)", "experiment": "Esterase hydrolysis microtiter plate assay with fluorescein pH indicator, bacteria esterase 1", "conditions": "for Km / Vmax: Lineweaver-Burk plot, various ester concentrations, bacteria esterase 1", "procedure": "as §1, §2\nas §3, with “In” for “The microtiter plate assay provides a rapid and reproducible system to measure the hydrolysis reactions. In”\nFor mixture analysis, concentration runs of four esters, PA, ethyl valerate (EV), methyl nicotinate (MNI) and methyl 6-methyl nicotinate (MMNI) were performed with the nine esterases. The rates of the esterase reaction were plotted on a Lineweaver-Burk plot to determine the Km and Vmax and were used to identify subsequent mixtures of the four esters."}, "[3]": {"test_system": "Esterase from Bacillus thermoglucosidasius (denoted bacteria-2)", "experiment": "Esterase hydrolysis microtiter plate assay with fluorescein pH indicator, bacteria 2 esterase", "procedure": "as §1\n(§4) First, solutions of desired substrates (certain exemplary substrates are depicted in FIGS. 4 and 5) were made from 100 mM of substrate in CH3CN (or buffer, depending on the solubility of the ester). […]\n(§5) The microtiter plate assay provides a rapid and reproducible system to measure the hydrolysis reactions. […] The plate was allowed to shake for 10 seconds before the first reading. The reader reads 15 second intervals while shaking before each read. The plate was monitored for 90 seconds by a Molecular Devices, Spectra Max Gemini, fluorescence microtiter plate reader. The reader scans each row and column of the microtiter plate reading each well individually. Therefore, each enzyme was monitored individually and the enzyme's kinetics were measured at the same point in time. […]"}, "nine esterases": {"test_system": "nine esterases", "experiment": "Esterase hydrolysis microtiter plate assay, nine-esterase array", "procedure": "as §1, §4, §5"}}}
{"smiles": "CCCC(=O)OCC", "note": "[BA, Ethyl butyrate]", "values": [{"measurement": "hydrolysis reaction slope after three months", "setting": "[1]", "result": "−3.2×10^2 fluorescence units/time"}, {"measurement": "initial slope range and standard deviation of hydrolysis reaction", "setting": "[1]", "result": "(−2.9±1.6)×10^3 fluorescence units/time"}]}
{"smiles": "COC(=O)[C@@H](C)N", "note": "[DM, D-alanine methyl ester]", "values": [{"measurement": "hydrolysis by acetylcholine esterase", "setting": "[1]", "result": "hydrolyzed"}, {"measurement": "hydrolysis by bacteria 1 esterase", "setting": "[2]", "result": "hydrolyzed"}, {"measurement": "hydrolysis by bacteria 2 esterase", "setting": "[3]", "result": "not DM"}]}
{"smiles": "COC(=O)[C@H](C)N", "note": "[LM, L-alanine methyl ester]", "values": [{"measurement": "hydrolysis by acetylcholine esterase", "setting": "[1]", "result": "hydrolyzed"}, {"measurement": "hydrolysis by bacteria 1 esterase", "setting": "[2]", "result": "hydrolyzed"}, {"measurement": "hydrolysis by bacteria 2 esterase", "setting": "[3]", "result": "hydrolyzes only LM"}]}
{"smiles": "CCCC(=O)OC", "note": "[MB, methyl butyrate]", "values": [{"measurement": "hydrolysis reaction slope after three months", "setting": "[1]", "result": "−1.3×10^2 fluorescence units/time"}, {"measurement": "initial slope range and standard deviation of hydrolysis reaction", "setting": "[1]", "result": "(−1.3±0.01)×10^2 fluorescence units/time"}]}
{"smiles": "CC(=O)Oc1ccccc1", "note": "[PA, Phenyl acetate]", "values": [{"measurement": "hydrolysis reaction slope after three months", "setting": "[1]", "result": "−1.5×10^3 fluorescence units/time"}, {"measurement": "initial slope range and standard deviation of hydrolysis reaction", "setting": "[1]", "result": "(−1.4±0.2)×10^2 fluorescence units/time"}, {"measurement": "relative rate of hydrolysis among all of the esters", "setting": "nine esterases", "result": "hydrolyzed the fastest"}]}
{"smiles": "CCCCC(=O)OCC", "note": "[ethyl valerate, Ethyl valerate]", "values": [{"measurement": "Km", "setting": "[2]", "result": 1000, "unit": "µM"}, {"measurement": "Vmax", "setting": "[2]", "result": "2e-07", "unit": "M/s"}]}
{"smiles": "COC(=O)c1ccc(C)nc1", "note": "[methyl 6-methyl nicotinate, Methyl 6-methyl nicotinate]", "values": [{"measurement": "Km", "setting": "[2]", "result": 2600, "unit": "µM"}, {"measurement": "Vmax", "setting": "[2]", "result": "4e-07", "unit": "M/s"}]}
